Source: ChEMBL document CHEMBL3576839, “N-Aryl azacycles as novel sodium channel blockers” (Bioorg Med Chem Lett, 2015)
Values after ≈ are worked out from the molar mass of the structure shown.

Tests used:
[1] = Kinetic solubility of the compound at pH 1.2; assay type: physicochemical; details: buffer, read-out: Kinetic_solubility
[2] = Kinetic solubility of the compound at pH 6.8; assay type: physicochemical; details: buffer, read-out: Kinetic_solubility
[3] = target: T1, Sodium channel protein type 9 subunit alpha (Homo sapiens, UniProt Q15858); assay: Inhibition of Nav1.7 (unknown origin) expressed in CHO cells after 45 mins by FLIPR assay; assay type: cell-based
hERG (KCNH2) = hERG (KCNH2) (Homo sapiens, UniProt Q12809); assay: Inhibition of human ERG at 1 uM
MDR1 [4] = assay: Apparent permeability from apical to basolateral side in MDCK cells expressing MDR1; assay type: ADME, cell-based, Canis lupus familiaris; details: dog
MDR1 [5] = assay: Apparent permeability from basolateral to apical side in MDCK cells expressing MDR1; assay type: ADME, cell-based, Canis lupus familiaris; details: dog
MDR1 [6] = assay: Efflux ratio of permeability from basolateral to apical side over apical to basolateral side in MDCK cells expressing MDR1; assay type: ADME, cell-based, Canis lupus familiaris; details: dog
[7] = Tmax in Sprague-Dawley rat at 3 mg/kg, po; assay type: ADME, organism-based; details: in vivo
[8] = Cmax in Sprague-Dawley rat at 3 mg/kg, po; assay type: ADME, organism-based; design: dose 3 mg/kg, route oral; details: in vivo
[9] = AUC in Sprague-Dawley rat at 3 mg/kg, po; assay type: ADME, organism-based; details: in vivo
[10] = target: T1, Sodium channel protein type 9 subunit alpha; assay: Inhibition of Nav1.7 (unknown origin) by electrophysiological assay

T1 sequence (Q15858 whole entry): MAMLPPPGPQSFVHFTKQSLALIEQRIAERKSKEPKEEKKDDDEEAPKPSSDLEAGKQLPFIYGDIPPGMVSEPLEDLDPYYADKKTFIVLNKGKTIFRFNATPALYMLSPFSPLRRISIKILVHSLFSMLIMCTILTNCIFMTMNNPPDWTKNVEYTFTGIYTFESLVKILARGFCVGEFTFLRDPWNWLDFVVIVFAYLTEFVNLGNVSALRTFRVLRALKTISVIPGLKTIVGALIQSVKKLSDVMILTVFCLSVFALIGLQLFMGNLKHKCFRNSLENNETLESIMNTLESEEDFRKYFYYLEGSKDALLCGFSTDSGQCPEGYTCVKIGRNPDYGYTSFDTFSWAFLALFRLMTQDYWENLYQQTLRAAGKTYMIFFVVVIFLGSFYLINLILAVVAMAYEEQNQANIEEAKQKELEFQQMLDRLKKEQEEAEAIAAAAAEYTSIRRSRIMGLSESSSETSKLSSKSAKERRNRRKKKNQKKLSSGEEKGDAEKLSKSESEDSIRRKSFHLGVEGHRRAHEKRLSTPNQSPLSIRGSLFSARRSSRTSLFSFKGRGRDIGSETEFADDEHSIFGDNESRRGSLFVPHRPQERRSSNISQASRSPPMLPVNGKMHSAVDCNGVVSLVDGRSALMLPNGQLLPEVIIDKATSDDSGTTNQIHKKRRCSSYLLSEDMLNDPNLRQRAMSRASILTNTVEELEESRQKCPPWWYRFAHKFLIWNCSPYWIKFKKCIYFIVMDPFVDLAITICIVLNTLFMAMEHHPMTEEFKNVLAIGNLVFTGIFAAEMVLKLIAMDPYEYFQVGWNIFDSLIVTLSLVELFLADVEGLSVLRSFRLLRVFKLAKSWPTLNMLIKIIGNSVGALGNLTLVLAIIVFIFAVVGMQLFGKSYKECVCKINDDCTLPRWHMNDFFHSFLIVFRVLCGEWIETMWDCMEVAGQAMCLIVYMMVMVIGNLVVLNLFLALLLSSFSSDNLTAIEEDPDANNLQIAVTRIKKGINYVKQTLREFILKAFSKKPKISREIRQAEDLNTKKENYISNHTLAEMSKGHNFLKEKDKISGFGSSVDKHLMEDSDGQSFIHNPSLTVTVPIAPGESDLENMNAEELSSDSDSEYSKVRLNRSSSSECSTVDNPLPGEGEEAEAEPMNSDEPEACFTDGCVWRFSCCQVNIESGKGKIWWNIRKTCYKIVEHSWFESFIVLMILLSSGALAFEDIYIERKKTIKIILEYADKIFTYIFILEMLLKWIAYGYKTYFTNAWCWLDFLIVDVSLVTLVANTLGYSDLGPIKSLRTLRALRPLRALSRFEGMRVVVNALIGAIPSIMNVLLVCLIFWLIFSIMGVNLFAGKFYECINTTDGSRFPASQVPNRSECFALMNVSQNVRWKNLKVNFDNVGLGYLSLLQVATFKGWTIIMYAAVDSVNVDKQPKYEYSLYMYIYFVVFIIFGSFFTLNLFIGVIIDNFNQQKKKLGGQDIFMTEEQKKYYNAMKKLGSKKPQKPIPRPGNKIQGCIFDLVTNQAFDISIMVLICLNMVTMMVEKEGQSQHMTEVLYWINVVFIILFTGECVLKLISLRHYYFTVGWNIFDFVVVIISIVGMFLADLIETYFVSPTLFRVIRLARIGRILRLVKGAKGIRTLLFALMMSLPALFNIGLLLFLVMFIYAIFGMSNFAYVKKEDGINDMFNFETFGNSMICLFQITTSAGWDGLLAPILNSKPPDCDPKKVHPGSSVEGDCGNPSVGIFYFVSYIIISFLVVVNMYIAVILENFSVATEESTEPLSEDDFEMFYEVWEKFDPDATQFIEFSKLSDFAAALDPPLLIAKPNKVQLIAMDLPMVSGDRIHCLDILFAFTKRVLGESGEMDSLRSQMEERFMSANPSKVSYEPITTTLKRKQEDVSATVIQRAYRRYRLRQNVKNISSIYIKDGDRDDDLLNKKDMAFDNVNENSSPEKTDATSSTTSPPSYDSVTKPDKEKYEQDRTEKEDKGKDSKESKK
Sequence of hERG (KCNH2) (Q12809 whole entry): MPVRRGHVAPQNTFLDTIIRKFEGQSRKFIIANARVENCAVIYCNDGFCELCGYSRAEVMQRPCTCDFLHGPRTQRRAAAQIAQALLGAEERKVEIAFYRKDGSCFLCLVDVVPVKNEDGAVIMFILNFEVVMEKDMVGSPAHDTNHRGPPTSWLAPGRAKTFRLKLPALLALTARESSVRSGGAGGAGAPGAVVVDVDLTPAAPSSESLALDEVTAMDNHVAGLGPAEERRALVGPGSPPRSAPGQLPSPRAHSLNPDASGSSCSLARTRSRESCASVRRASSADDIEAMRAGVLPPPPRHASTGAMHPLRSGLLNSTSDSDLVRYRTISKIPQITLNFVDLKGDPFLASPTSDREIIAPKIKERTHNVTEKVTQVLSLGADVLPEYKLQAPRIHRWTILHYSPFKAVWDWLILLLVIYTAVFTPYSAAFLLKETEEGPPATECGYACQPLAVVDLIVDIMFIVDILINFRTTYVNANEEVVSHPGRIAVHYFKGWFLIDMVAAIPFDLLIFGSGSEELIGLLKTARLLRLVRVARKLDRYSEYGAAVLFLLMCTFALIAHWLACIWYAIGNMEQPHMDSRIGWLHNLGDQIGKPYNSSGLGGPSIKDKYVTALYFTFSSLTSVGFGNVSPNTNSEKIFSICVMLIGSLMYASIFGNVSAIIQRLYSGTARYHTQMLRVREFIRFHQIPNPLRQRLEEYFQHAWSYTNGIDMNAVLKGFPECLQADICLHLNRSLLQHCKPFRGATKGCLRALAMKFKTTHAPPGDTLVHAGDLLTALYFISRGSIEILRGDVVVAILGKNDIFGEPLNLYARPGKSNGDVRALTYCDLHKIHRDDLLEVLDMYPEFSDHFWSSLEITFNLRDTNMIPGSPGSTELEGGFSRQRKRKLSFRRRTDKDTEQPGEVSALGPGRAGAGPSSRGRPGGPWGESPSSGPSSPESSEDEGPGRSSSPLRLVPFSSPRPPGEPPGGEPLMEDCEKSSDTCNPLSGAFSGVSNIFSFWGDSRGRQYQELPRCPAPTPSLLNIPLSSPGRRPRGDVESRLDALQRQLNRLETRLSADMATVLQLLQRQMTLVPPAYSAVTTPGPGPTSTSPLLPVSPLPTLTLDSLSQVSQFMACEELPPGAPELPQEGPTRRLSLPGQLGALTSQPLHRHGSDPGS

NC(=O)c1cccc(-c2ccc3c(c2)CNCCN3c2ccc(C(F)(F)F)cc2)n1
solubility kinetic [1]: 18 µM (≈ 7.42 µg/mL)
solubility kinetic [2]: 0.59 µM (≈ 0.243 µg/mL)

CC(=O)N1CCN(c2ccc(C(F)(F)F)cc2)c2ccc(-c3cccc(C(N)=O)n3)cc2C1
IC50 [3]: 380 nM

CC(=O)N1CCN(c2ccc(C(F)(F)F)cc2)c2ccc(-c3cccc([C@H](O)CO)n3)cc2C1
solubility kinetic [1]: 80 µM (≈ 37.7 µg/mL)
solubility kinetic [2]: 39 µM (≈ 18.4 µg/mL)
inhibition at 1 µM (hERG (KCNH2)): 13.9%
Papp A→B (MDR1 [4]): 0.9 ×10⁻⁶ cm/s
Papp B→A (MDR1 [5]): 28.3 ×10⁻⁶ cm/s
efflux ratio (MDR1 [6]): 31
Tmax [7]: 2.5 h
Cmax [8]: 94 ng/mL
AUC [9]: 562 ng·h/mL

NC(=O)N1CCN(c2ccc(C(F)(F)F)cc2)c2ccc(-c3cccc([C@H](O)CO)n3)cc2C1
solubility kinetic [1]: 66 µM (≈ 31.2 µg/mL)
solubility kinetic [2]: 1 µM (≈ 0.472 µg/mL)
inhibition at 1 µM (hERG (KCNH2)): 22.6%
Tmax [7]: 2.5 h
Cmax [8]: 21 ng/mL
AUC [9]: 133 ng·h/mL

NC(=O)c1cccc(-c2ccc3c(c2)OCCCN3c2ccc(C(F)(F)F)cc2)n1
solubility kinetic [1]: 0.08 µM (≈ 0.0331 µg/mL)
solubility kinetic [2]: 0.08 µM (≈ 0.0331 µg/mL)

CNC(=O)CN1CCN(c2ccc(C(F)(F)F)cc2)c2ccc(-c3cccc([C@H](O)CO)n3)cc2C1
Ki [10]: 440 nM

NC(=O)c1cccc(-c2ccc3c(c2)CCCCN3c2ccc(C(F)(F)F)cc2)n1
solubility kinetic [1]: 0.03 µM (≈ 0.0123 µg/mL)
solubility kinetic [2]: 0.02 µM (≈ 0.00823 µg/mL)

CS(=O)(=O)N1CCN(c2ccc(C(F)(F)F)cc2)c2ccc(-c3cccc([C@H](O)CO)n3)cc2C1
Ki [10]: 230 nM
